The values that follow are results of earlier work, collected in patent USRE43580E1, “Nasal calcitonin formulations” (Unigene Laboratories, Inc., priority 2000, dated 2012).

For data set [1] the following is noted: preservative in the nasal formulation.
Data set [2] concerns nasal mucosa. The note with it: in vivo.
For data set [3], the system named is mucocilary transport velocity. The conditions noted are these: ex vivo frog palate.
In data set [4] the test system is respiratory mucosal tissue. The conditions noted are these: exposed in vitro.
Data set [5] has as its system rhinitis medicamentosa. The note with it: healthy volunteers, decongestant nasal spray containing the preservative.

For benzalkonium chloride, in data set [1], the “Absorption of salmon calcitonin” value is reported as “enhance the absorption of salmon calcitonin”. Moreover, in data set [2], the “Effect on nasal mucosa” value is recorded as “adverse effect on nasal mucosa”. The Mucocilary transport velocity result in data set [3] is on record as “significant slowing”. In data set [4], the “Morphology of respiratory mucosal tissue” value was “severe morphological alterations”. In data set [5], the Rhinitis medicamentosa result is “aggravate rhintis rhinitis medicamentosa”.
